How the values were obtained:
[1] = Pharmacokinetics and excretion in mice after IV or IM 14C-Genistein (Example 8); format: in vivo; conditions: for Bioavailibility / AUC0-inf / AUC0-tlast / Cmax / Extrapolation / ke1 / tlast: male CD1 mice, total radioactivity; for Bioavailibility: Group 2 single IM 200 mg/kg vs IV; for Excretion recovery: by 168 hours post dose
Protocol: As shown in the results of Table 10, male CD1 mice were administered a single IM dose (Group 2, nominal 200 mg/kg) or a single IV bolus dose (Group 3, nominal 50 mg/kg) of ^14C-Genistein. The genistein formulation used was a suspension formulation that includes genistein suspended in sterile water with 0.2% (w/w) Polysorbate 80 and 5% (w/w) PVP K17. […] Following dosing, the content and concentration of radioactivity in blood, plasma, excreta and carcass, and the non-compartmental pharmacokinetics of total radioactivity in whole blood and plasma were determined, Following dose administration, the extent and severity of any clinical signs was assessed.
(§1) Whole-blood samples were collected and plasma was obtained by centrifugation. The concentration of radioactivity in whole-blood and plasma was measured by liquid scintillation spectroscopy.

[2] = Radiochemical stability of the test article in dose formulations; format: physicochemical; conditions: for mean stability value (radiochemical): dog study; for mean radiochemical stability: mouse study
Protocol: The concentration of radioactivity in both dose formulations was measured pre and post dose by liquid scintillation spectroscopy and was similar on both occasions. The radiochemical stability of the test article in both dose formulations was assessed prior to and following the administration of the dose. The mean radiochemical stability of the test article in the dose formulation samples from the intramuscular dose formulation (Group 2) were 98.5% and 98.2%, respectively. The mean radiochemical stability values for pre and post dose samples from the intravenous dose formulation (Group 3) were 98.3% and 98.5%, respectively. Therefore, the ^14C-Genistein in both formulations was considered to have been radiochemically stable throughout the dosing period.
(§2) Male Beagle dogs were administered a single IV bolus dose (Group 1, nominal 20 mg/kg) or a single IM dose (Group 2, nominal 20 mg/kg) of 14C-Genistein (results shown in Table 11). The Genistein suspension formulation used was prepared as described in Example 8, Following dosing, the content and concentration of radioactivity in blood, plasma and excreta, and the non-compartmental pharmacokinetics of total radioactivity in whole blood and plasma were determined. The concentration of radioactivity in both dose formulations was measured pre and post dose by liquid scintillation spectroscopy and was similar on both occasions. The radiochemical stability of the test article in both dose formulations was assessed prior to and following the administration of the dose. The mean stability values for pre and post dose samples from the intravenous dose formulation (Group 1) were 100% and 99.6%, respectively. The mean stability values for pre and post dose samples from the intramuscular dose formulation (Group 2) were 99.2% and 98.9%, respectively. Therefore, the ^14C-Genistein in both formulations was considered to have been radiochemically stable throughout the dosing period.

[3] = Pharmacokinetics and excretion in Beagle dogs after IV or IM 14C-Genistein (Example 9); format: in vivo; conditions: for AUC0-inf / AUC0-tlast / Cmax / Extrapolation / ke1 / tlast / Bioavailibility: male Beagle dogs, total radioactivity; for Bioavailibility: Group 2 single IM 20 mg/kg vs IV, from AUC0-tlast
Protocol: as §2, §1

[4] = Group 2 single IM 200 mg/kg, blood
[5] = Group 2 single IM 200 mg/kg, plasma
[6] = Group 3 single IV bolus 50 mg/kg, blood
[7] = Group 3 single IV bolus 50 mg/kg, plasma
[8] = Group 1 single IV bolus 20 mg/kg, blood
[9] = Group 1 single IV bolus 20 mg/kg, plasma
[10] = Group 2 single IM 20 mg/kg, blood
[11] = Group 2 single IM 20 mg/kg, plasma

SMILES: O=c1c(-c2ccc(O)cc2)coc2cc(O)cc(O)c12 [14C-Genistein]
- treatment-related clinical signs ([1]; main study male mice, single IM 200 mg/kg or single IV 50 mg/kg): No treatment-related clinical signs were observed
- Bioavailibility ([1]; blood): 49.7%
- Bioavailibility ([1]; plasma): 83.5%
- AUC0-inf [1, 4]: 223 μg eq · h/mL
- AUC0-tlast [1, 4]: 222 μg eq · h/mL
- Cmax [1, 4]: 33.3 μg eq/mL
- Extrapolation [1, 4]: 0.663%
- ke1 [1, 4]: 0.0242 h⁻¹
- tlast [1, 4]: 168 h
- AUC0-inf [1, 5]: 387 μg eq · h/mL
- AUC0-tlast [1, 5]: 375 μg eq · h/mL
- Cmax [1, 5]: 63.1 μg eq/mL
- Extrapolation [1, 5]: 3.18%
- ke1 [1, 5]: 0.0145 h⁻¹
- tlast [1, 5]: 168 h
- AUC0-inf [1, 6]: 112 μg eq · h/mL
- AUC0-tlast [1, 6]: 99.7 μg eq · h/mL
- Cmax [1, 6]: 60.1 μg eq/mL
- Extrapolation [1, 6]: 11.4%
- ke1 [1, 6]: 0.0118 h⁻¹
- tlast [1, 6]: 168 h
- AUC0-inf [1, 7]: 116 μg eq · h/mL
- AUC0-tlast [1, 7]: 116 μg eq · h/mL
- Cmax [1, 7]: 108 μg eq/mL
- Extrapolation [1, 7]: 0.191%
- ke1 [1, 7]: 0.0307 h⁻¹
- tlast [1, 7]: 168 h
- tolerability of dose level ([1]; mice, 200 mg/kg (IM) and 50 mg/kg (IV)): well tolerated
- Blood to plasma ratios ([1]; mice, Group 2 IM 200 mg/kg, any time post dose): less than 1
- time post dose of highest mean concentration of radioactivity in plasma and whole blood ([1]; mice, Group 2 IM 200 mg/kg, first time point analyzed): 30 min
- Excretion recovery ([1]; mice, Group 2 IM): ~92%
- blood-to-plasma ratios ([1]; mice, Group 3 IV 50 mg/kg, 0 to 24 hours): less than 1
- time post dose of highest mean concentration of radiolabelled material in plasma and whole blood ([1]; mice, Group 3 IV 50 mg/kg, first time point analyzed): 30 min
- Excretion recovery ([1]; mice, Group 3 IV): approximately 93%
- time within which the majority of the dose administered was excreted ([1]; mice, both dose routes): ≤ 24 h
- mean stability value (radiochemical) ([2]; intramuscular dose formulation (Group 2), post dose): 98.9%
- mean stability value (radiochemical) ([2]; intramuscular dose formulation (Group 2), pre dose): 99.2%
- mean stability value (radiochemical) ([2]; intravenous dose formulation (Group 1), post dose): 99.6%
- mean stability value (radiochemical) ([2]; intravenous dose formulation (Group 1), pre dose): 100%
- mean radiochemical stability ([2]; intramuscular dose formulation (Group 2), following dosing): 98.2%
- mean radiochemical stability ([2]; intramuscular dose formulation (Group 2), prior to dosing): 98.5%
- mean radiochemical stability ([2]; intravenous dose formulation (Group 3), post dose): 98.5%
- mean radiochemical stability ([2]; intravenous dose formulation (Group 3), pre dose): 98.3%
- Excretion recovery by 168 hours post dose ([3]; dogs, Group 1 IV): approximately 87.9%
- Blood to plasma ratios ([3]; dogs, Group 1 IV bolus 20 mg/kg): less than 1
- time post dose of highest mean concentration of radiolabelled material in plasma and whole blood ([3]; dogs, Group 1 IV bolus 20 mg/kg, first time point analyzed): 15 min
- Excretion recovery by 168 hours post dose ([3]; dogs, Group 2 IM): ~85.8%
- time post dose of highest mean concentration of radioactivity in plasma and whole blood ([3]; dogs, Group 2 IM 20 mg/kg): 2 h
- Blood to plasma ratios ([3]; dogs, Group 2 IM 20 mg/kg, any time post dose): less than 1
- Clinical signs ([3]; dogs, IV bolus 20 mg/kg and IM 20 mg/kg, considered to be dose-related): Clinical signs were observed in both groups
- excretion mass balance ([3]; dogs, both dose routes): greater than 85%
- time within which the majority of the dose administered was excreted ([3]; dogs, both dose routes): ≤ 48 h
- overall mean excretion mass balance of radioactivity ([3]; dogs, both groups): 86-88 % of the administered dose
- AUC0-inf [3, 8]: 122 μg eq · h/mL
- AUC0-tlast [3, 8]: 117 μg eq · h/mL
- Cmax [3, 8]: 40.4 μg eq/mL
- Extrapolation [3, 8]: 16.8%
- ke1 [3, 8]: 0.0130 h⁻¹
- tlast [3, 8]: 120 h
- AUC0-inf [3, 9]: 227 μg eq · h/mL
- AUC0-tlast [3, 9]: 201 μg eq · h/mL
- Cmax [3, 9]: 94.4 μg eq/mL
- Extrapolation [3, 9]: 11.3%
- ke1 [3, 9]: 0.0138 h⁻¹
- tlast [3, 9]: 120 h
- Bioavailibility ([3]; blood): 92.9%
- Bioavailibility ([3]; plasma): 96.1%
- AUC0-tlast [3, 10]: 108 μg eq · h/mL
- Cmax [3, 10]: 5.39 μg eq/mL
- tlast [3, 10]: 168 h
- AUC0-inf [3, 11]: 228 μg eq · h/mL
- AUC0-tlast [3, 11]: 193 μg eq · h/mL
- Cmax [3, 11]: 10.9 μg eq/mL
- Extrapolation [3, 11]: 15.1%
- ke1 [3, 11]: 0.0092 h⁻¹
- tlast [3, 11]: 168 h
